Data reported in patent US12280066B2, “Methods and compositions related to glucocorticoid receptor antagonists and breast cancer” (The University of Chicago, priority 2010, dated 2025).

Assays:
[1] = tested on: T-R MCF-7 (ER+/PR+/GR+) cells; assay: Annexin V FACS apoptosis assay, T-R MCF-7 cells; format: cell-based; details: mifepristone/paclitaxel 10^-6 M compared to paclitaxel alone, 20 hours, P=0.028
Description: (§1) Apoptosis was measured using FITC conjugated-anti-Annexin V antibody labeling followed FACS analysis to determine the percentage of the total cell population undergoing apoptosis after 20 hours of treatment.

[2] = tested on: Parental MCF-7 (ER+/PR+/GR+) cells; assay: Annexin V FACS apoptosis assay, parental MCF-7 cells; format: cell-based; details: mifepristone/paclitaxel 10^-6 M compared to paclitaxel alone, 20 hours
Description: as §1

[3] = tested on: glucocorticoid receptor (GR); details: literature (Moran et al., 2000; Mikosz et al., 2001); cited from earlier work
[4] = tested on: MDA-MB-231 human breast cancer cells; assay: MDA-MB-231 xenograft tumor volume in SCID mice; details: mifepristone 15 mg/kg i.p. two hours prior to paclitaxel 10 mg/kg, five successive days, compared to paclitaxel alone, P=0.013

Compound: CC#C[C@]1(O)CC[C@H]2[C@@H]3CCC4=CC(=O)CCC4=C3[C@@H](c3ccc(N(C)C)cc3)C[C@@]21C [mifepristone]
- apoptosis (percentage of total cell population undergoing apoptosis) [1]: Significantly more apoptosis
- apoptosis (percentage of total cell population undergoing apoptosis) ([1]; listed as Mifepristone): increases
- apoptosis (percentage of total cell population undergoing apoptosis) [2]: No difference
- apoptosis (percentage of total cell population undergoing apoptosis) ([2]; listed as Mifepristone): not parental MCF-7
- reversal of GR-initiated cell survival signaling [3]: reverses cell survival signaling pathways initiated by the GR
- tumor volume over time [4]: increases MDA-MB-231 tumor susceptibility to paclitaxel
- tumor volume over time ([4]; listed as Mifepristone): significantly decreased tumor volume over time
